Test results: publication PMC5218472 (PLoS Biology, 2017)
Residues, ends and D or L forms follow the SMILES beside them. No end group written: not given here. *: point of attachment. NH(β-GlcNAc) = CC(=O)N[C@@H]1[C@@H](O)[C@H](O)[C@@H](CO)O[C@H]1N*; αGalNAc = CC(=O)N[C@@H]1[C@@H](O)[C@@H](O)[C@@H](CO)O[C@@H]1*

Key:
ADAM17 = tested on: T1, ADAM17; experiment: In vitro cleavage assay of IL-6R (glyco)peptides with recombinant ADAM17; conditions: human, isolated enzyme, pH 9
T1 construct: catalytic domain (aa Pro-18 to Val-477) of ADAM17; purchased Enzo Life Sciences GmbH (Lörrach, Germany)
Protocol: Fig 7 The N- and O-glycosylated sequon adjacent to the cleavage site is of minor importance for IL-6R cleavage. (A) Amino-acid sequence of the two unglycosylated peptides 1(QD) and 2(QA). Peptides were incubated either with or without recombinant ADAM17 for 16 h at 37°C, and the amount of cleaved peptide was analyzed by reversed-phase (RP) chromatography. (B) Amino-acid sequence of the two glycopeptides 3(QD) and 4(QA), which have a GlcNAc attached to the amino-acid residue corresponding to Asn-350 of the IL-6R. Cleavage was determined as described in panel (A). (C) Amino-acid sequence of the two glycopeptides 5(QD) and 6(QA), which have a biantennary N-glycan attached to the amino-acid residue corresponding to Asn-350 of the IL-6R. Cleavage was determined as described in panel (A). (D) Amino-acid sequence of the two glycopeptides 7(QD) and 8(QA), which have a GalNAc attached to the amino-acid residue corresponding toThr-352 of the IL-6R. Cleavage was determined as described in panel (A). (E) Amino-acid sequence of the two glycopeptides 9(QD) and 10(QA), which have a biantennary N-glycan attached to the amino-acid residue corresponding to Asn-350 and a GalNAc attached to the amino-acid residue corresponding toThr-352 of the IL-6R. Cleavage was determined as described in panel (A). All data shown are the mean ± SD from three independent experiments (*p < 0.05, **p < 0.01, ***p < 0.001, compared to the untreated peptide; ^§p < 0.05, compared to the cleaved nonglycosylated peptide).
Two 1.5 ml reaction tubes were filled with 50 μl peptide (50 μM) solved in 25 mM Hepes (pH 9.0), and 0.5 μl of the recombinant catalytic domain of ADAM17 was added to one of the reaction tubes, whereas the other sample remained untreated. All samples were incubated for 16 h at 37°C. Afterwards, 1,150 μl 0.1% TFA was added to each sample, and the peptides were separated on a reverse phase chromatography column (Multo High Bio-200-C18) from Chromatographie Service (Langerwehe, Germany) using a linear gradient elution with a binary solvent system and a flow rate of 1 ml/min. Solvent A consisted of 0.1% TFA, and solvent B consisted of 100% ACN. After peak integration, peak areas for cleaved and noncleaved peptides were determined.

[1] = tested on: Ba/F3-gp130-hIL-6R 2N cells; experiment: Proliferation in response to IL-6 or Hyper-IL-6 (S6B Fig); format: cell-based; conditions: highest value = 100, mean of n = 3
Source text: (§1) In order to analyze a functional role for the determined glycans, we created IL-6R mutants that lacked either one, multiple, or all N-glycosylation sites and stably transduced Ba/F3-gp130 cells with these. […] When we analyzed IL-6-dependent proliferation of the individual cell lines, we could not detect a difference between the wild-type IL-6R (Fig 4K), IL-6R mutants lacking one of the five N-glycosylation sites (Fig 6A–6E), IL-6R mutants lacking two (termed 2N), three (3N), or four N-glycosylation sites (4N, S6B–S6D Fig), or the IL-6R mutant that lacked all five N-glycans (5N, Fig 6F). Similarly, mutation of the O-glycosylation site on Thr-352 had no influence on IL-6 signaling (Fig 6G).
(§2) Proliferation of the different Ba/F3-gp130-IL-6R cell lines in response to IL-6 and Hyper-IL-6 and of Ba/F3-gp130 cells in response to IL-6 and the two different recombinant sIL-6R variants was determined using the Cell Titer Blue Cell viability assay reagent (Promega, Karlsruhe, Germany), following the manufacturer’s protocol as described previously. Values were measured in triplicates per experiment, and relative light units (RLU) obtained after 60 min were normalized by subtraction of control values obtained after 0 min. The maximum proliferation was set to 100%, and all other values were calculated accordingly.
(§3) Supplementary file pbio.2000080.s006.tif: S6 Fig Cell-surface expression and signaling capacity of different N-glycan mutants. (A) Cell-surface expression of the IL-6R on the individual Ba/F3-gp130-IL-6R cell lines. The stably transduced IL-6R mutant is indicated above the histogram. Staining is shown in color, whereas the control staining is shown in gray. One out of three experiments with similar outcome is shown. (B-D) Equal numbers of cells of the indicated Ba/F3-gp130-hIL-6R cell line were incubated for 48 h with increasing amounts (0–100 ng/ml) of either IL-6 or Hyper-IL-6. One representative experiment out of three performed is shown (mean ± SD, biological triplicates). (TIF) Click here for additional data file.

[2] = tested on: Ba/F3-gp130-hIL-6R 3N cells; experiment: Proliferation in response to IL-6 or Hyper-IL-6 (S6C Fig); format: cell-based; conditions: highest value = 100, mean of n = 3
Source text: as §1, §2, §3

[3] = tested on: Ba/F3-gp130-hIL-6R-4N cells; experiment: Proliferation in response to IL-6 or Hyper-IL-6 (S6D Fig); format: cell-based; conditions: highest value = 100, mean of n = 3
Source text: as §1, §2, §3

[4] = tested on: Ba/F3-gp130-IL-6R_DG cells; experiment: Proliferation in response to IL-6 or Hyper-IL-6 (S4H Fig); format: cell-based; conditions: highest value = 100, mean of n = 3
Protocol: as §2
Supplementary file pbio.2000080.s004.tif: S4 Fig Mutation of Val-356 is sufficient to block ADAM10-mediated proteolysis of the IL-6R and the Asp358Ala variant. (A) HEK293 cells were transiently transfected with Expression plasmids encoding the wildtype IL-6R (PV) or the double mutants (IE, DG) as indicated. Cells were either treated with 1 μM ionomycin for 1 h or DMSO as vehicle control. sIL-6R was precipitated from the supernatant with concanavalin A-covered Sepharose beads, and cells were lysed. Both were analyzed via Western blot, and β-actin served as loading control. One out of three experiments with similar outcome is shown. (B, C) The experiment was performed as described under (A), but sIL-6R generation was analyzed via ELISA. In (B), the amount of sIL-6R generated after ionomycin-stimulation of the wildtype IL-6R (PV) was set to 100%, and all other values were calculated accordingly. In (C), the amount of sIL-6R without stimulation was considered as constitutive shedding and set to 1 and the increase of sIL-6R was calculated. Data shown are the mean ± SD from at least three independent experiments (*p<0.05, ns = no significant difference). (D-F) HEK293 cells were transiently transfected with expression plasmids encoding the wildtype IL-6R (PV) or the single mutants (DV, IV, PE, PG) as indicated. The experiments were performed as described in (A) to (C). (G) ADAM10-mediated proteolysis of the IL-6R variants depicted in Fig 4I was analyzed as described in (B). (H) Equal numbers of Ba/F3-gp130-IL-6R_DG cells were incubated for 48 h with increasing amounts (0–100 ng/ml) of either IL-6 or Hyper-IL-6. One representative experiment out of three performed is shown (mean ± SD, biological triplicates). (TIF) Click here for additional data file.

[5] = tested on: recombinant catalytic domain of ADAM17; experiment: recombinant catalytic domain of ADAM17 in 25 mM Hepes (pH 9.0); conditions: 37°C, up to 16 h

CC[C@H](C)[C@H](NC(=O)[C@@H](N)CC(N)=O)C(=O)N[C@@H](CC(C)C)C(=O)N[C@@H](Cc1ccccc1)C(=O)N[C@@H](CCCNC(=N)N)C(=O)N[C@@H](CC(=O)O)C(=O)N[C@@H](CO)C(=O)N[C@@H](C)C(=O)N[C@@H](CC(=O)N[C@@H]1O[C@H](CO)[C@@H](O)[C@H](O)[C@H]1NC(C)=O)C(=O)N[C@@H](C)C(=O)N[C@H](C(=O)N[C@@H](CO)C(=O)N[C@@H](CC(C)C)C(=O)N1CCC[C@H]1C(=O)N[C@H](C(=O)N[C@@H](CCC(N)=O)C(=O)N[C@@H](CC(=O)O)C(=O)N[C@@H](CO)C(=O)N[C@@H](CO)C(=O)N[C@@H](CO)C(=O)N[C@H](C(=O)N1CCC[C@H]1C(=O)N[C@@H](CC(C)C)C(=O)N1CCC[C@H]1C(=O)O)C(C)C)C(C)C)[C@@H](C)O [3(QD)] (H-NILFRDSAD(NH(β-GlcNAc))ATSLPVQDSSSVPLP-OH)
remaining at 16 h, 50 μM (ADAM17): 91.4%

CC[C@H](C)[C@H](NC(=O)[C@@H](N)CC(N)=O)C(=O)N[C@@H](CC(C)C)C(=O)N[C@@H](Cc1ccccc1)C(=O)N[C@@H](CCCNC(=N)N)C(=O)N[C@@H](CC(=O)O)C(=O)N[C@@H](CO)C(=O)N[C@@H](C)C(=O)N[C@@H](CC(=O)N[C@@H]1O[C@H](CO)[C@@H](O)[C@H](O)[C@H]1NC(C)=O)C(=O)N[C@@H](C)C(=O)N[C@H](C(=O)N[C@@H](CO)C(=O)N[C@@H](CC(C)C)C(=O)N1CCC[C@H]1C(=O)N[C@H](C(=O)N[C@@H](CCC(N)=O)C(=O)N[C@@H](C)C(=O)N[C@@H](CO)C(=O)N[C@@H](CO)C(=O)N[C@@H](CO)C(=O)N[C@H](C(=O)N1CCC[C@H]1C(=O)N[C@@H](CC(C)C)C(=O)N1CCC[C@H]1C(=O)O)C(C)C)C(C)C)[C@@H](C)O [4(QA)] (H-NILFRDSAD(NH(β-GlcNAc))ATSLPVQASSSVPLP-OH)
remaining at 16 h, 50 μM (ADAM17): 0.4%

CC[C@H](C)[C@H](NC(=O)[C@@H](N)CC(N)=O)C(=O)N[C@@H](CC(C)C)C(=O)N[C@@H](Cc1ccccc1)C(=O)N[C@@H](CCCNC(=N)N)C(=O)N[C@@H](CC(=O)O)C(=O)N[C@@H](CO)C(=O)N[C@@H](C)C(=O)N[C@@H](CC(N)=O)C(=O)N[C@@H](C)C(=O)N[C@H](C(=O)N[C@@H](CO)C(=O)N[C@@H](CC(C)C)C(=O)N1CCC[C@H]1C(=O)N[C@H](C(=O)N[C@@H](CCC(N)=O)C(=O)N[C@@H](CC(=O)O)C(=O)N[C@@H](CO)C(=O)N[C@@H](CO)C(=O)N[C@@H](CO)C(=O)N[C@H](C(=O)N1CCC[C@H]1C(=O)N[C@@H](CC(C)C)C(=O)N1CCC[C@H]1C(=O)O)C(C)C)C(C)C)[C@@H](C)O[C@H]1O[C@H](CO)[C@H](O)[C@H](O)[C@H]1NC(C)=O [7(QD)] (H-NILFRDSANAT(αGalNAc)SLPVQDSSSVPLP-OH)
remaining at 16 h, 50 μM (ADAM17): 91%

CC[C@H](C)[C@H](NC(=O)[C@@H](N)CC(N)=O)C(=O)N[C@@H](CC(C)C)C(=O)N[C@@H](Cc1ccccc1)C(=O)N[C@@H](CCCNC(=N)N)C(=O)N[C@@H](CC(=O)O)C(=O)N[C@@H](CO)C(=O)N[C@@H](C)C(=O)N[C@@H](CC(N)=O)C(=O)N[C@@H](C)C(=O)N[C@H](C(=O)N[C@@H](CO)C(=O)N[C@@H](CC(C)C)C(=O)N1CCC[C@H]1C(=O)N[C@H](C(=O)N[C@@H](CCC(N)=O)C(=O)N[C@@H](C)C(=O)N[C@@H](CO)C(=O)N[C@@H](CO)C(=O)N[C@@H](CO)C(=O)N[C@H](C(=O)N1CCC[C@H]1C(=O)N[C@@H](CC(C)C)C(=O)N1CCC[C@H]1C(=O)O)C(C)C)C(C)C)[C@@H](C)O[C@H]1O[C@H](CO)[C@H](O)[C@H](O)[C@H]1NC(C)=O [8(QA)] (H-NILFRDSANAT(αGalNAc)SLPVQASSSVPLP-OH)
remaining at 16 h, 50 μM (ADAM17): 10.8%

IL-6: recombinant human interleukin-6
proliferation, Figure S6B, mean ([1]; cytokine 0.001 ng/ml): 10.1623
proliferation, Figure S6B, mean ([1]; cytokine 0.01 ng/ml): 21.276
proliferation, Figure S6B, mean ([1]; cytokine 0.1 ng/ml): 41.189
proliferation, Figure S6B, mean ([1]; cytokine 1 ng/ml): 78.0666
proliferation, Figure S6B, mean ([1]; cytokine 10 ng/ml): 86.7819
proliferation, Figure S6B, mean ([1]; cytokine 100 ng/ml): 79.1326
proliferation, Figure S6C, mean ([2]; cytokine 0.001 ng/ml): 8.138
proliferation, Figure S6C, mean ([2]; cytokine 0.01 ng/ml): 15.3684
proliferation, Figure S6C, mean ([2]; cytokine 0.1 ng/ml): 39.4534
proliferation, Figure S6C, mean ([2]; cytokine 1 ng/ml): 92.5489
proliferation, Figure S6C, mean ([2]; cytokine 10 ng/ml): 89.1651
proliferation, Figure S6C, mean ([2]; cytokine 100 ng/ml): 87.3482
proliferation, Figure S6D, mean ([3]; cytokine 0.001 ng/ml): 7.259
proliferation, Figure S6D, mean ([3]; cytokine 0.01 ng/ml): 22.724
proliferation, Figure S6D, mean ([3]; cytokine 0.1 ng/ml): 61.9479
proliferation, Figure S6D, mean ([3]; cytokine 1 ng/ml): 88.3209
proliferation, Figure S6D, mean ([3]; cytokine 10 ng/ml): 84.8559
proliferation, Figure S6D, mean ([3]; cytokine 100 ng/ml): 63.7775
proliferation, Figure S4H, mean ([4]; cytokine 0.001 ng/ml): 4.604
proliferation, Figure S4H, mean ([4]; cytokine 0.01 ng/ml): 11.7535
proliferation, Figure S4H, mean ([4]; cytokine 0.1 ng/ml): 45.6464
proliferation, Figure S4H, mean ([4]; cytokine 1 ng/ml): 77.0141
proliferation, Figure S4H, mean ([4]; cytokine 10 ng/ml): 92.624
proliferation, Figure S4H, mean ([4]; cytokine 100 ng/ml): 70.8452

NILFRDSANATSLPVQASSSVPLP [2(QA)]
remaining at 16 h, 50 μM (ADAM17): 0.93%

NILFRDSANATSLPVQDSSSVPLP [1(QD)]
remaining at 16 h, 50 μM (ADAM17): 86%

NILFRDSANATSLPVQDSSSVPLP [3(QD)]
not cleaved [5]: 91.4% ± 9.4% intact after 16 h
